Each block holds one compound with its values, some of them ahead of it.
Key:
[1] = Binding affinity to Ras SOS1 binding site
[2] = Inhibition of Ras assessed as inhibition of intrinsic nucleotide exchange in cell-based assay
GTPase KRas = GTPase KRas (Homo sapiens, UniProt P01116, G12D); assay: Binding affinity to K-Ras G12D mutant-GDP complex
GTPase NRas = GTPase NRas (Homo sapiens, UniProt P01111); assay: Inhibition of N-Ras expressed in Escherichia coli using [3H]GDP and [3H]GTP assessed as inhibition of intrinsic nucleotide exchange by scintillation counting
[3] = molecular target: T1, Son of sevenless homolog 1 (Homo sapiens, UniProt Q07889); assay: Inhibition to His6-tagged Sos1 catalytic domain-mediated nucleotide exchange by fluorimetric assay
T1 sequence (Q07889 whole entry): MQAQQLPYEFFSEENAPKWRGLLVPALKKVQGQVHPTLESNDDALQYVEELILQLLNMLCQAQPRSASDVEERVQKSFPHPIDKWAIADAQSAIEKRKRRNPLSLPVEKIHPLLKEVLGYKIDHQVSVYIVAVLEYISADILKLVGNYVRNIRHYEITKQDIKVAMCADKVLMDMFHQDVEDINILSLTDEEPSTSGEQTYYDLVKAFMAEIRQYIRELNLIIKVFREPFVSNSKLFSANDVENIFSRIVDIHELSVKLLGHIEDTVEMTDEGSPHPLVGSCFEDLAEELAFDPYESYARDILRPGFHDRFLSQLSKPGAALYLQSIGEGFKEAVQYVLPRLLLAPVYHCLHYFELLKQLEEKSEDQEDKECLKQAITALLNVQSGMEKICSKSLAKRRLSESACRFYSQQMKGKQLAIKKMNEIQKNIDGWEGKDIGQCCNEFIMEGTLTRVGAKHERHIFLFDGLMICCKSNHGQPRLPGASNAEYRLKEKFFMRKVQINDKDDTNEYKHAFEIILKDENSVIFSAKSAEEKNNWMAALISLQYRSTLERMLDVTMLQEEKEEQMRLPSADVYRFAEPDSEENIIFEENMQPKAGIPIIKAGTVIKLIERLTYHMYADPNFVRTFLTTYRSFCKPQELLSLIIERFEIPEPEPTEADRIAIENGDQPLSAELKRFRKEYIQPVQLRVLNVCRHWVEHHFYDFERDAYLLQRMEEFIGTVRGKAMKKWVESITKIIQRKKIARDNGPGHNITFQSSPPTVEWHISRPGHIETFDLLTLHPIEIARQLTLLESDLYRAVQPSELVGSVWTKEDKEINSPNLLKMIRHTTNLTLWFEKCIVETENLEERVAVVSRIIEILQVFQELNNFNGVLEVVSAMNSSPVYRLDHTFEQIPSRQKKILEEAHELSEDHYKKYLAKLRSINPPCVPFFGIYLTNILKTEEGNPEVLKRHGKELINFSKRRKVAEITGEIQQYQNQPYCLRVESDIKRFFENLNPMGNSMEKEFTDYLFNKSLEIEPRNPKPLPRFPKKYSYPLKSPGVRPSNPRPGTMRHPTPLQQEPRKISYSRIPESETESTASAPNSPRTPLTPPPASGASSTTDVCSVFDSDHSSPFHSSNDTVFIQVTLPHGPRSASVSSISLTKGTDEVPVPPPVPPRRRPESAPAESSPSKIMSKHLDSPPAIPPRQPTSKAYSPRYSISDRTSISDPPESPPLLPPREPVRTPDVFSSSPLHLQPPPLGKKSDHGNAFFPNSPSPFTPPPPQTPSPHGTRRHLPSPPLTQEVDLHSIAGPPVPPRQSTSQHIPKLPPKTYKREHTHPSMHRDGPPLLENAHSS

Sequence of GTPase NRas (P01111 whole entry, the tested form may be a part): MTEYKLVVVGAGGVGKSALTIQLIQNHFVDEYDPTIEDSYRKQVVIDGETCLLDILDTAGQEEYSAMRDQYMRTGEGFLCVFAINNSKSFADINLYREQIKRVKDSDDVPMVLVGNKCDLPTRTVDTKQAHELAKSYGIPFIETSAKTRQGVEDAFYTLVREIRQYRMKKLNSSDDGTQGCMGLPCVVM
Sequence of GTPase KRas (P01116 whole entry G12D): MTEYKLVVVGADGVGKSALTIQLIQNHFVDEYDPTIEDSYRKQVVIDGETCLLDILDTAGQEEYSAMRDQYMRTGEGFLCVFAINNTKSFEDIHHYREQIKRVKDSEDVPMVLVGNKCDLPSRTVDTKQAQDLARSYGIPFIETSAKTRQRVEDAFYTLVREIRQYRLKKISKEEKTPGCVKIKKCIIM

Activity [1]: 1.3 mM
SMILES: Oc1ccccc1C(=S)N1CCCC1

EC50 [2]: 10 µM
SMILES: O=S(=O)(NCCOc1ccc2ccccc2c1)c1ccc(NO)cc1

IC50 [3]: 25 µM
SMILES: CC[C@H](C)[C@H](NC(=O)CN1C/C=C\CCC(=O)N[C@@H](Cc2ccccc2)C(=O)N[C@@H](CCC(=O)O)C1=O)C(=O)N[C@@H](Cc1ccc(O)cc1)C(=O)N[C@@H](CCCNC(=N)N)C(=O)N[C@@H](CC(C)C)C(=O)N[C@@H](CCC(=O)O)C(=O)N[C@@H](CC(C)C)C(=O)N[C@@H](CC(C)C)C(=O)N[C@@H](CCCCN)C(=O)N[C@@H](C)C(=O)N[C@@H](CCC(=O)O)C(=O)N[C@@H](CCC(=O)O)C(=O)N[C@@H](C)C(=O)N[C@@H](CC(N)=O)C(N)=O

Further lines, the compound ahead of its results:

SMILES: c1ccc2c(Cc3nc4ccncc4[nH]3)c[nH]c2c1
Activity [1]: 1.3 mM

SMILES: CC[C@H](C)[C@H](N)C(=O)Nc1ccc2nc(Cc3c[nH]c4ccccc34)[nH]c2c1
Kd (GTPase KRas): 190 µM

SMILES: O=S(=O)(c1ccc(NO)cc1)N(CCOc1ccc2ccccc2c1)[C@@H]1O[C@H](CO)[C@@H](O)[C@H](O)[C@H]1O
IC50 (GTPase NRas): 0.5 µM

SMILES: Nc1cccc(NS(=O)(=O)c2ccc(F)cc2)n1
Activity [1]: 1.3 mM
